According to patent US7915227B2, “Pharmaceutical formulations employing short-chain sphingolipids and their use” (Het Nederlands Kanker Instituut, priority 2003, dated 2011):

Key:
BAEC = experiment: Doxorubicin uptake by cultured BAEC; type: cell-based; conditions: lipid 10 μM, doxorubicin 50 μM simultaneously, 60 minutes, uptake in the absence of lipid = 100%
Description: A range of glycosphingolipids and sphingomyelins having different structures were also studied. The data are summarised in the following tables, and are expressed as a percentage (+/−SD) of doxorubicin uptake by cultured BAEC, as compared to drug uptake in the absence of lipid. Glycosphingolipids and sphingomyelins were used at 10 μM. Doxorubicin was administered simultaneously at 50 μM. After 60 minutes, cells were washed and cellular doxorubicin contents were determined fluorimetrically. Background fluorescence was subtracted from all values and all data were corrected for protein contents. Each data point is the average value of at least three independent experiments, but some lipids were assayed in 10 or more independent experiments. For each experiment 4, 6 or 8 wells with cells were treated identically and the data were then averaged (=1 experiment).

A431 cells [1] = experiment: Membrane leakage assay (LDH release); type: cell-based, human; conditions: for LDH release: 100 μM lipid
Description: To investigate (loss of) plasma membrane integrity, the release of the cytosolic enzyme LDH into phenol red-free cell culture medium was monitored. Flat-bottom 96-well plates containing (liposome-treated) A431 cells were centrifuged (2000 rpm, 5 minutes at 20° C.) and 50 μl aliquots of the supernatants were assessed for LDH activity with the CytoTox 96 kit, according the manufacturer's instructions. Values obtained from cells that were lysed in 0.8% Triton X-100 served as positive control. All data were corrected for protein contents, as determined with the BCA assay (see, e.g., Smith et al., 1985).

A431 cells [2] = experiment: Cell viability (MTT assay); type: cell-based, human; conditions: for viability after 24 hour exposure: 24 hour exposure to 20 μM lipid
Description: For viability assessment, A431 cells were cultured in flat-bottom 96-well plates. After experimental treatments, 100 μg of the mitochondrial dehydrogenase substrate MTT was added to each well (see, e.g., Carmichael et al., 1987). Cells were then incubated for 60 minutes at 37° C. After centrifugation (3000 rpm, 10 minutes at 4° C.) supernatants were removed. The precipitated blue formazan products were then dissolved in 100 μl DMSO, and absorbencies were read in a Bio-Tek Instruments EL 340 photospectrometric microplate reader at 540 nm. Background absorbencies were subtracted and values from wells containing untreated control cells were set at 100% viability.

A431 cells [3] = experiment: Cellular doxorubicin uptake; type: cell-based, human; conditions: 15 μM co-administered lipid, within an hour, control conditions = 100%
Description: A431 (adherent human epidermoid carcinoma cells) were cultured in Dulbecco's modified Eagle medium (DMEM), supplemented with 10% (v/v) fetal calf serum, 100 units/ml penicillin, 100 μg/ml streptomycin and 4 mM L-glutamine. Cells were sub-cultured once a week by trypsinization and maintained in a water-saturated atmosphere of 5% CO2 at 37° C. All studies were performed at a confluency of 80-90%.
For cellular doxorubicin accumulation measurements, A431 cells were cultured in flat-bottom 96-well plates. At confluency, cells were changed to serum-free medium and exposed to 50 μM free or to 20 μM liposomal doxorubicin. After extensive washing, cells were lysed in 100 μl of 1% (w/v) Triton X-100. Native fluorescence intensities were then measured by a Perkin Elmer Victor Wallac II fluorescence microplate reader, using 485 nm and 535 nm filters for excitation and emission, respectively. All values were corrected for background fluorescence. Cellular doxorubicin contents were calculated with the aid of standard amounts, and corrected for differences in protein content, as determined with the BCA assay (see, e.g., Smith et al., 1985).

Structure (SMILES) | doxorubicin uptake, mean % ± SD (sphingomyelins) (BAEC) | doxorubicin uptake, mean % ± SD (glycosphingolipids) (BAEC) | other results
CCCCCCCCCCCCC/C=C/[C@@H](OC)[C@H](COP(=O)([O-])OCC[N+](C)(C)C)NC(=O)CCCCCCC [3-O-methyl-C8-SM] | 249.8 ± 36.5% |  | 
CCCCCCCCCCCCC/C=C/[C@@H](O)[C@@H](N)CO[C@@H]1O[C@H](CO)[C@H](O)[C@H](O)[C@H]1O [C0-GalCer] |  | 98.2 ± 9.3% | 
CCCCCCCCCCCCC/C=C/[C@@H](O)[C@@H](N)CO[C@@H]1O[C@H](CO)[C@@H](O)[C@H](O)[C@H]1O [C0-GlcCer] |  | 86.7 ± 16.2% | 
CCCCCCCCCCCCC/C=C/[C@@H](O)C(N)CO[C@H]1O[C@H](CO)[C@@H](O[C@@H]2O[C@H](CO)[C@H](O)[C@H](O)[C@H]2O)[C@H](O)[C@@H]1O (stereo partly drawn) [C0-LacCer] |  | 93.8 ± 4.0% | 
CCCCCCCCCCCCC/C=C/[C@@H](O)[C@@H](N)COP(=O)([O-])OCC[N+](C)(C)C [C0-SM (SPC)] | 128.3 ± 19.5% |  | 
CCCCCCCCCCCCC/C=C/[C@@H](O)[C@H](CO)NC(=O)CCCCC [C6-Cer] | 96.6 ± 17.3% |  | 
CCCCCCCCCCCCC/C=C/[C@@H](O)[C@H](COP(=O)([O-])OCC[N+](C)(C)C)NC(=O)CCCCC [C6-SM, N-hexanoyl-sphingomyelin] | 330.6 ± 92.3% |  | LDH release (A431 cells [1]): 53.9±7.9%; LDH release (of total LDH activity) (A431 cells [1]; 1 hour incubation with 10 μM lipid, 0.8% Triton X-100 = 100%): 0.5±0.5%; viability after 24 hour exposure (A431 cells [2]): 29.3±5.5%; viable cells (A431 cells [2]; determined 24 hours after a 1 hour incubation with 10 μM lipid): 95.6±19.1%; uptake of free doxorubicin (A431 cells [3]): 461.8±126.9%
CCCCCCCCCCCCC/C=C/[C@@H](O)[C@H](COP(=O)(O)O)NC(=O)CCCCCCC [C8-Cer-1-P] | 122.2 ± 7.2% |  | 
CCCCCCCCCCCCCC=CC(O)C(COC1OC(CO)C(O)C(O)C1O)NC(=O)CCCCCCC (stereo not drawn) [C8-GalCer] |  | 213.7 ± 31.1% | 
CCCCCCCCCCCCC/C=C/[C@@H](O)[C@H](COC1OC(CO)C(O)C(O)C1O)NC(=O)CCCCCCC (stereo partly drawn) [C8-GlcCer, N-octanoyl-glucosylceramide] |  | 335.8 ± 88.5% | LDH release (A431 cells [1]): 0.0±0.6%; viability after 24 hour exposure (A431 cells [2]): 71.3±5.3%; uptake of free doxorubicin (A431 cells [3]): 271.7±58.5%
CCCCCCCCCCCCCC=CC(O)C(COC1OC(CO)C(OC2OC(CO)C(O)C(O)C2O)C(O)C1O)NC(=O)CCCCCCC (stereo not drawn) [C8-LacCer] |  | 301.5 ± 41.2% | 
CCCCCCCCCCCCCC=CC(O)C(COC1OC(CO)C(O)C(O)C1O)NC(=O)CCCCCCCCCCC (stereo not drawn) [C12-GlcCer] |  | 85.6 ± 12.0% | 
CCCCCCCCCCCCC/C=C/[C@@H](O)[C@@H](N)CO [sphingosine, (2S,3R,4E)-2-amino-4-octadecene-1,3-diol] | 100.4 ± 20.3% |  | 
